Experiment [1] concerns the target Protein kinase C theta type (Homo sapiens) (UniProt Q04759). Kind of experiment: Inhibition of human PKCtheta at 18.6 nM by HotSpot assay relative to control.
Experiment [2] concerns the target T1, Serine/threonine-protein kinase Nek1 (Homo sapiens) (UniProt Q96PY6).
T1 sequence (whole entry): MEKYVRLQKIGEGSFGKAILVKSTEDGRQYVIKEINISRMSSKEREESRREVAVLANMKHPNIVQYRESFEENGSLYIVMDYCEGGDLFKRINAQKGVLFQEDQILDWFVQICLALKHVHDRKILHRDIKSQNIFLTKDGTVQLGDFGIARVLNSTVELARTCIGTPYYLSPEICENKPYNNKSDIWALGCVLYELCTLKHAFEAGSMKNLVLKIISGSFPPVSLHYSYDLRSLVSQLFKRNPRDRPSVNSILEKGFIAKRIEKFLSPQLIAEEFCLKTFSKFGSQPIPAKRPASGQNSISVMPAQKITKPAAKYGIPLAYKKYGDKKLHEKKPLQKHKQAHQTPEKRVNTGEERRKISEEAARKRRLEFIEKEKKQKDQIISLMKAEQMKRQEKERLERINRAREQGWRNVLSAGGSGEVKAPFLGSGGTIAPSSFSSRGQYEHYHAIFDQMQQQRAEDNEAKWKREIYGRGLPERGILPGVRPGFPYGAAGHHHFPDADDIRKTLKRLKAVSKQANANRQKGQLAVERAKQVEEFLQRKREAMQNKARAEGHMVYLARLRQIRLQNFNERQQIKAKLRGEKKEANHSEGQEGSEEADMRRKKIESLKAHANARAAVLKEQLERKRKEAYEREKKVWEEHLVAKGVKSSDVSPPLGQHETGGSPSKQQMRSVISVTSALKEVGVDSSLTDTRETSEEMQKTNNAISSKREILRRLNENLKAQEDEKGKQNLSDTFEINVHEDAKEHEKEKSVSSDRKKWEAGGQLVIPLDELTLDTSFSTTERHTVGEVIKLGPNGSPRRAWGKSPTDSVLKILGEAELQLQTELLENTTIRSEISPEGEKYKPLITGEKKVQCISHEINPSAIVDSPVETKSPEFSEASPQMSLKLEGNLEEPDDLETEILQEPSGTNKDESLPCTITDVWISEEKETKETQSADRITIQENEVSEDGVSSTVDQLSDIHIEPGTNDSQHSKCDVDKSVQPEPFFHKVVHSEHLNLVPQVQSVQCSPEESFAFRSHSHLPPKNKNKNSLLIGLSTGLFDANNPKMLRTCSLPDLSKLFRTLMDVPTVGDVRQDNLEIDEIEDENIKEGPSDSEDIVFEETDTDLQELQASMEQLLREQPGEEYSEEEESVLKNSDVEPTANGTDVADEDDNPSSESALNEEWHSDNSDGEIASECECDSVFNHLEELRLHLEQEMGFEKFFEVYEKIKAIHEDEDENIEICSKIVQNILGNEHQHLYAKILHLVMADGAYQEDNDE
Kind of experiment: Inhibition of human NEK1 at 18.6 nM by HotSpot assay relative to control.

Experiment [3] deals with Protein kinase C delta type (Homo sapiens) (UniProt Q05655). Kind of experiment: Inhibition of human PKCd at 18.6 nM by HotSpot assay relative to control.
Protein kinase C delta type (Homo sapiens), sequence (Q05655 whole entry, looked up): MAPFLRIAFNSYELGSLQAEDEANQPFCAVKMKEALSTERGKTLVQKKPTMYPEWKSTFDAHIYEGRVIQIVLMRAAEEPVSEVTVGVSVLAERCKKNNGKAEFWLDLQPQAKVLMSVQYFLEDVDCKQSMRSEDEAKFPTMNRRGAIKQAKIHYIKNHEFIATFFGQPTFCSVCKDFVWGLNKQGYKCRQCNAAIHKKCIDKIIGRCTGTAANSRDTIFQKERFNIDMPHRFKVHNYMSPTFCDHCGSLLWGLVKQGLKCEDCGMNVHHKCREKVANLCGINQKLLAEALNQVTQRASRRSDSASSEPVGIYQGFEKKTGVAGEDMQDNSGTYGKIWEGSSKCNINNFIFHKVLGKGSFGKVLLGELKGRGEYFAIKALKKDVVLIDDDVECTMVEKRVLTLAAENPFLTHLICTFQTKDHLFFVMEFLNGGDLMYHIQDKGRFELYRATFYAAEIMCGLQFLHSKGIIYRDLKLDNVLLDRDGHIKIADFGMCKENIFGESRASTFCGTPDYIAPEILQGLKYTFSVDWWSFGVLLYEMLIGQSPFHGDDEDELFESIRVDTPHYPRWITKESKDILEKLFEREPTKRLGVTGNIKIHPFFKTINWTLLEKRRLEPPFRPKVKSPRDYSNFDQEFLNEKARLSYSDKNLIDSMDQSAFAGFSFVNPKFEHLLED
Experiment [4] deals with RAF proto-oncogene serine/threonine-protein kinase (Homo sapiens) (UniProt P04049). The experiment is described as follows: Inhibition of human RAF1 at 18.6 nM by HotSpot assay relative to control.
RAF proto-oncogene serine/threonine-protein kinase (Homo sapiens), sequence (P04049 whole entry): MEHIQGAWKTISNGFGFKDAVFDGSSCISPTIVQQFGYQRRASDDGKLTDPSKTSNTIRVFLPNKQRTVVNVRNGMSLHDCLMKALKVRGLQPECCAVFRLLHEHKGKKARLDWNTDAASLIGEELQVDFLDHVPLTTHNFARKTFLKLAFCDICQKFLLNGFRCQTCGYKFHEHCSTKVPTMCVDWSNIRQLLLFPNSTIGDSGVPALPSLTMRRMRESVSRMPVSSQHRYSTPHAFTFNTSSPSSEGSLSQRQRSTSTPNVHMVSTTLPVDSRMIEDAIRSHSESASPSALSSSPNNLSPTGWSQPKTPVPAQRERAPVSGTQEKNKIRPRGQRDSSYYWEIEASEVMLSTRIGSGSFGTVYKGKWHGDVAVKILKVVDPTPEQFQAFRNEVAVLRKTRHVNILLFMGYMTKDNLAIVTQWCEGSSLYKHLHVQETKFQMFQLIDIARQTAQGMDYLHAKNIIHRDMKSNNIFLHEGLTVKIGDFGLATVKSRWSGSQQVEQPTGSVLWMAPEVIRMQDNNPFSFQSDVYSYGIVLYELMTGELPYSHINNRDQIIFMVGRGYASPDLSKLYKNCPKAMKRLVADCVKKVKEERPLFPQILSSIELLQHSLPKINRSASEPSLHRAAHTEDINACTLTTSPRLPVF
The target of experiment [5] is Glycogen synthase kinase-3 beta (Homo sapiens) (UniProt P49841). The experiment is described as follows: Inhibition of human GSK3b at 18.6 nM by HotSpot assay relative to control.
Experiment [6] deals with T2, Serine/threonine-protein kinase DCLK2 (Homo sapiens) (UniProt Q8N568).
T2 sequence (whole entry): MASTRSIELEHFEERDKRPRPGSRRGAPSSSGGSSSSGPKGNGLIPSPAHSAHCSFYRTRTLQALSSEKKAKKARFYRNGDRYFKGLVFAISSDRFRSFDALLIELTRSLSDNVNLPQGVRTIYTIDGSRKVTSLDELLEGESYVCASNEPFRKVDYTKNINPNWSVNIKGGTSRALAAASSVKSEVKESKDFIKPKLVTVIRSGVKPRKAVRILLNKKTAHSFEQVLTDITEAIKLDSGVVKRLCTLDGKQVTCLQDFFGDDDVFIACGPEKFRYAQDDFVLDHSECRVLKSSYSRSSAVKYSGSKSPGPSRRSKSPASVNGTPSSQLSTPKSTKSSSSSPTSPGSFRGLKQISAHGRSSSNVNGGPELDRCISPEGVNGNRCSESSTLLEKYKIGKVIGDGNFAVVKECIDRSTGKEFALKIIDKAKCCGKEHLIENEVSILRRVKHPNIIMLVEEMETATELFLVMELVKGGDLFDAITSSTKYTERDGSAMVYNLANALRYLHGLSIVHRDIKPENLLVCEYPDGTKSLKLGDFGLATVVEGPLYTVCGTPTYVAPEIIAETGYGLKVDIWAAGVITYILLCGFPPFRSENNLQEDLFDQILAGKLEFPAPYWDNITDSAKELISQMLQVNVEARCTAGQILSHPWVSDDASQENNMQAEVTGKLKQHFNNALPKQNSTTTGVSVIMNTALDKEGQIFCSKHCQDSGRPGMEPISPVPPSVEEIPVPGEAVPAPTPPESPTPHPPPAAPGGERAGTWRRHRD
The experiment is described as follows: Inhibition of human DCAMKL2 at 1.82 nM by HotSpot assay relative to control.

Experiment [7] has as its target Ribosomal protein S6 kinase beta-1 (Homo sapiens) (UniProt P23443). Kind of experiment: Inhibition of human RPS6KB1 at 1.82 nM by HotSpot assay relative to control.
The target of experiment [8] is Serine/threonine-protein kinase PLK3 (Homo sapiens) (UniProt Q9H4B4). The experiment is described as follows: Inhibition of human PLK3 at 1.82 nM by HotSpot assay relative to control.
Experiment [9] has as its target Dual specificity protein kinase CLK2 (Homo sapiens) (UniProt P49760). The note with it: dose 1.82 nM.
Description: Inhibition of human CLK2 at 1.82 nM by HotSpot assay relative to control
Experiment [10] deals with Calcium/calmodulin-dependent protein kinase type 1G (Homo sapiens) (UniProt Q96NX5). Kind of experiment: Inhibition of human CAMK1g at 1.82 nM by HotSpot assay relative to control.
Calcium/calmodulin-dependent protein kinase type 1G (Homo sapiens), sequence (Q96NX5 whole entry): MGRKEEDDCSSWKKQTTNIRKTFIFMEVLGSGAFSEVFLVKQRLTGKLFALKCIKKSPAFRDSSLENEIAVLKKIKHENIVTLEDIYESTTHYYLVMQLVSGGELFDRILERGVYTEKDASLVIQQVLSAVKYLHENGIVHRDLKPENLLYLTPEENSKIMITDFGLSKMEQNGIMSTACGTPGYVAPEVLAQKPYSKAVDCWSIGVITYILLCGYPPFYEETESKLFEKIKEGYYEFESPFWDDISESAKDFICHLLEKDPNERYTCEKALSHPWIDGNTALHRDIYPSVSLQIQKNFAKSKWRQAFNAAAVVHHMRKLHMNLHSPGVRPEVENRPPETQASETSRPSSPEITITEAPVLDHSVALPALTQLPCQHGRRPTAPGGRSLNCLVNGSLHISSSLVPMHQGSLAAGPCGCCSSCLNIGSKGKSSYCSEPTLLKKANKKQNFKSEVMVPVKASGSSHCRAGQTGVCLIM
In experiment [11] the target is CDK1/Cyclin A (Homo sapiens) (UniProt P06493+P20248). Kind of experiment: Inhibition of human CDK1/cyclin A at 1.82 nM by HotSpot assay relative to control. Type of experiment: protein-complex assay.
CDK1/Cyclin A (Homo sapiens), sequence (P06493 whole entry, looked up): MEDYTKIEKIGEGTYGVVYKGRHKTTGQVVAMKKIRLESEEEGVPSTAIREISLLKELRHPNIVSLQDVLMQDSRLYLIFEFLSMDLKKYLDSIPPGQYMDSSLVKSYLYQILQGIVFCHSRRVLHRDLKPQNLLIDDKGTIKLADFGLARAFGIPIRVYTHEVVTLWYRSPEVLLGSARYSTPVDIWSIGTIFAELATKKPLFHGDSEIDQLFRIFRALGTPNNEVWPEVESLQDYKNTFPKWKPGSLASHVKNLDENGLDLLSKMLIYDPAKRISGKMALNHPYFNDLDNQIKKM
CDK1/Cyclin A (Homo sapiens), sequence (P20248 whole entry, looked up): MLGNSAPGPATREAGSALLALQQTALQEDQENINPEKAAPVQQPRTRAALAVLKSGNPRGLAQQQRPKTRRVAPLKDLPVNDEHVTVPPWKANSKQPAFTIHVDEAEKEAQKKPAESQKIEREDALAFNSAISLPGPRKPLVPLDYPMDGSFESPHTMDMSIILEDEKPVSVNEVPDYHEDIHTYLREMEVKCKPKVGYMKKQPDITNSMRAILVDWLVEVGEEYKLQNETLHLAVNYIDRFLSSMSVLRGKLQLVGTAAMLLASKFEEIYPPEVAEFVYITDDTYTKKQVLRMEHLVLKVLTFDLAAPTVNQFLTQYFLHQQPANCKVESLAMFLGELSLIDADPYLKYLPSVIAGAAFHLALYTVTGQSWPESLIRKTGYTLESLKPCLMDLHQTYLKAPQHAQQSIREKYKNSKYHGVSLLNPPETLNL
In experiment [12] the target is Protein-tyrosine kinase 6 (Homo sapiens) (UniProt Q13882). The experiment is described as follows: Inhibition of human BRK at 1.82 nM by HotSpot assay relative to control.
Protein-tyrosine kinase 6 (Homo sapiens), sequence (Q13882 whole entry, looked up): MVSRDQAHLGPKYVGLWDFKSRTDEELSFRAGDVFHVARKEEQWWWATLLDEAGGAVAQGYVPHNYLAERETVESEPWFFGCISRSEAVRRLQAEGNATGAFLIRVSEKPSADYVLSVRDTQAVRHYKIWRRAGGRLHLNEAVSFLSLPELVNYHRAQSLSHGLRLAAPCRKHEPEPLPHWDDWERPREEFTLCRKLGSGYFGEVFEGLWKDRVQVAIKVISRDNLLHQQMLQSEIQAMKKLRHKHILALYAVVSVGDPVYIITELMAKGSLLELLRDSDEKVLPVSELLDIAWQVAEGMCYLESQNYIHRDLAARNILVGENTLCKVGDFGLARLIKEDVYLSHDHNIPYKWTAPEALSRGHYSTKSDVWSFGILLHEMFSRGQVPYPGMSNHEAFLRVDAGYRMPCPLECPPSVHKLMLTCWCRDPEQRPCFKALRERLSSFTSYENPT
Experiment [13] addresses Mast/stem cell growth factor receptor Kit (Homo sapiens) (UniProt P10721). The experiment is described as follows: Inhibition of human c-Kit at 1.82 nM by HotSpot assay relative to control.
Experiment [14] concerns the target Wee1-like protein kinase (Homo sapiens) (UniProt P30291). The experiment is described as follows: Inhibition of human WEE1 at 1.82 nM by HotSpot assay relative to control.
Experiment [15] deals with High affinity nerve growth factor receptor (Homo sapiens) (UniProt P04629). Kind of experiment: Inhibition of human TRKA at 1.82 nM by HotSpot assay relative to control.

Dual specificity protein kinase CLK2 (Homo sapiens), sequence (P49760 whole entry, looked up): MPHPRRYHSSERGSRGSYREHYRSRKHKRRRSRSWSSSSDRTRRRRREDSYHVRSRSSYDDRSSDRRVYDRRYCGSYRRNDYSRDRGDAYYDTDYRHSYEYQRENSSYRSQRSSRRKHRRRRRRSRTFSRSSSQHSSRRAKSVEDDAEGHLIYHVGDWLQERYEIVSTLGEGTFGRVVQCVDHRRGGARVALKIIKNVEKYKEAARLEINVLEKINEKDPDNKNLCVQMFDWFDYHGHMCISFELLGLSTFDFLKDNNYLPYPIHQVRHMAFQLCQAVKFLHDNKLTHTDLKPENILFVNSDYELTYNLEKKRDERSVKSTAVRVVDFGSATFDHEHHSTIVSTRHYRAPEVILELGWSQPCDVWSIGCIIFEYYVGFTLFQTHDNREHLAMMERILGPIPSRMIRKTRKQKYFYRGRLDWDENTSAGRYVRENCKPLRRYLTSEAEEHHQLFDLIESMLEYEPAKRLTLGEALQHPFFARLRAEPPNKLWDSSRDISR
Ribosomal protein S6 kinase beta-1 (Homo sapiens), sequence (P23443 whole entry, looked up): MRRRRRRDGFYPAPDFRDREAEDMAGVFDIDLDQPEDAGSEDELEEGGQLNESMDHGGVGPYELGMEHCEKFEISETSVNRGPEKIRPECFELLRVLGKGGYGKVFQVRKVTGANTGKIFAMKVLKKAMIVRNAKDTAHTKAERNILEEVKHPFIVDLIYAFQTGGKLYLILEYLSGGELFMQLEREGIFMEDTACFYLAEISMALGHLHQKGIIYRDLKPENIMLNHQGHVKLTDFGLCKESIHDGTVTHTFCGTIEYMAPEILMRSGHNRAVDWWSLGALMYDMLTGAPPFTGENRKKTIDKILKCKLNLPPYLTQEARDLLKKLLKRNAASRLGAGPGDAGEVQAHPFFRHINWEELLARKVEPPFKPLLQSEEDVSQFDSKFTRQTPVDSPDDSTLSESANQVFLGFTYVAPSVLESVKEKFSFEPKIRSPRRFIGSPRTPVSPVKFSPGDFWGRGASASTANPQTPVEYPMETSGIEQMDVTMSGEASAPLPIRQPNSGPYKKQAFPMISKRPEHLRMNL
Wee1-like protein kinase (Homo sapiens), sequence (P30291 whole entry, looked up): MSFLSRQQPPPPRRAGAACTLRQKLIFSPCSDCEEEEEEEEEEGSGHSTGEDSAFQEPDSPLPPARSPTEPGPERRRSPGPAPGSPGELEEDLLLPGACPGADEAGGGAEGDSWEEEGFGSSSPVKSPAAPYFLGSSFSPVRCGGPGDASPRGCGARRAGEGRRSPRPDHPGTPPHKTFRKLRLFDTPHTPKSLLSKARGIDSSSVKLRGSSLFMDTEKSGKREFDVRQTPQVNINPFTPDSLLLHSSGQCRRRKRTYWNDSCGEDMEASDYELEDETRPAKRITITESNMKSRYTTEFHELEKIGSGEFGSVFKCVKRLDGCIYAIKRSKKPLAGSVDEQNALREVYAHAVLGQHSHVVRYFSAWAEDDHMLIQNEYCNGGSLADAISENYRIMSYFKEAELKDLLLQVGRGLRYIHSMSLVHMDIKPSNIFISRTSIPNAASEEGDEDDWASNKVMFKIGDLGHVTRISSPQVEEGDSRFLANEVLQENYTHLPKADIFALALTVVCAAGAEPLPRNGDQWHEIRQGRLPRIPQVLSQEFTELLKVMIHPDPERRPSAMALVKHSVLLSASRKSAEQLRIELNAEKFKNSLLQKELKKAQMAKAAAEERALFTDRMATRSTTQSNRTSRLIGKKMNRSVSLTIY

The inhibition is the change of the read-out against control, counted positive when it falls. With `C[C@]1(O)C[C@@H](c2nc(-c3ccc4ccc(-c5ccccc5)nc4c3)c3c(N)nccn32)C1`, the inhibition in [1] was -9.99%; in [2] it was 5.45%; in experiment [3], -2%; in experiment [4], -5.79%; in experiment [5], 67.1%.
Consider `C[C@@]1(C(=O)Nc2ccc(F)nc2)CCCN1c1nc(Nc2cc(C3CC3)n[nH]2)c2cccn2n1`, for which the inhibition in experiment [6] is 3.94%; in experiment [7], -5.56%; in [8] it was 2.72%; in experiment [9] it was -1.7%; in experiment [10] it was 7.27%; in [11], -1.79%. For the same compound, the inhibition is 0.2% in experiment [12], 2.48% in experiment [13], 1.94% in [14] and 21.1% in experiment [15].

These data come from ChEMBL document CHEMBL5653615 (J Biol Chem, 2013).
